Results published in patent US12152017B2, “Ketoamide compound and preparation method, pharmaceutical composition, and use thereof” (Shanghai Institute of Materia Medica, Chinese Academy of …, priority 2018, dated 2024).

Tested on: MERS-CoV pseudovirus
Assay: microbe, parasite or virus in culture
Assay type: cell-based
Details: Middle East respiratory syndrome-related coronavirus, Huh-7, read-out: MERS-CoV pseudovirus inhibitory activity IC50

Row | Compound | IC50 [nM]
1 | O=C(NCc1ccccc1)C(=O)[C@H](C[C@@H]1CCCNC1=O)NC(=O)C(CC1CCCCC1)NC(=O)c1coc2ccccc12 (stereo partly drawn) [Example A249] | 0.6 ± 0.2
2 | O=C(NCc1ccccc1)C(=O)[C@H](C[C@@H]1CCCNC1=O)NC(=O)[C@H](Cc1ccccc1)NC(=O)c1cnc2ccccc2n1 [Example A81, N—((S)-1-(((S)-4-(benzylamino)-3,4-dione-1-((S)-2-oxopiperidine-3-yl)but-2-yl)amino)-1-oxo-3-phenylpropan-2-yl)-quinoxaline-2-carboxamide] | 0.2 ± 0.1
3 | CC(C)NC(=O)CC[C@H](NC(=O)[C@H](CC1CCCCC1)NC(=O)c1cnc2ccccc2n1)C(=O)C(=O)NCc1ccccc1 [Example A236, N—((S)-1-(((S)-4-(benzyl)-3,4-dione-1-(isopropylamino)-2-yl)amino)-3-(cyclohexyl)-1-oxopropan-2-yl)-quinoxaline-2-carboxamide] | 16.6 ± 4
4 | CC(C)(C)NC(=O)C(=O)[C@H](C[C@@H]1CCNC1=O)NC(=O)[C@H](CC1CCCCC1)NC(=O)c1ccc2ccccc2n1 [Example A43] | 786 ± 458
5 | O=C(NCc1ccccc1)C(=O)[C@H](C[C@@H]1CCCNC1=O)NC(=O)C(CC1CCCCC1)NC(=O)c1ccc2c(c1)OCO2 (stereo partly drawn) [Example A243] | 10.7 ± 0.8
6 | Cn1c(C(=O)N[C@@H](CC2CCCCC2)C(=O)N[C@@H](C[C@@H]2CCNC2=O)C(=O)C(=O)NC2CCCCC2)cc2ccccc21 [Example A26, N—((S)-3-cyclohexyl-1-(((S)-4-(cyclohexylamino)-3,4-dione-1-((S)-2-oxopyrrolidine-3-yl)but-2-yl)amino)-3-cyclohexyl-1-oxopropan-2-yl)-1-methyl-1H-indole-2-carboxamide] | 7.8 ± 3.5
7 | Cc1ccc2oc(C(=O)NC(CC3CCCCC3)C(=O)N[C@@H](C[C@@H]3CCCNC3=O)C(=O)C(=O)NCc3ccccc3)c(C)c2c1 (stereo partly drawn) [Example A247] | 1.7 ± 0.4
8 | O=C(NC1CCCCC1)C(=O)[C@H](C[C@@H]1CCNC1=O)NC(=O)[C@H](CC1CCCCC1)NC(=O)c1ccc2ccccc2n1 [Example A44, N—((S)-3-cyclohexyl-1-(((S)-4-(cyclohexylamino)-3,4-dione-1-((S)-2-oxopyrrolidine-3-yl)but-2-yl)amino)-3-cyclohexyl-1-oxopropan-2-yl)-quinoline-2-carboxamide] | 18 ± 5.6
9 | COc1cccc2cc(C(=O)NC(CC3CCCCC3)C(=O)N[C@@H](C[C@@H]3CCCNC3=O)C(=O)C(=O)NCc3ccccc3)oc12 (stereo partly drawn) [Example A245] | 18.4 ± 8
10 | Cn1c(C(=O)N[C@@H](CC2CCCCC2)C(=O)N[C@@H](C[C@@H]2CCNC2=O)C(=O)C(=O)NC(C)(C)C)cc2ccccc21 [Example A25] | 407 ± 352
11 | O=C(NC1CCCCC1)C(=O)[C@H](C[C@@H]1CCCNC1=O)NC(=O)[C@H](CC1CCCCC1)NC(=O)c1cc2ccccc2o1 [Example A15] | < 0.1
12 | Cc1c(C(=O)NC(CC2CCCCC2)C(=O)N[C@@H](C[C@@H]2CCCNC2=O)C(=O)C(=O)NCc2ccccc2)oc2ccccc12 (stereo partly drawn) [Example A246] | 10.8 ± 10
13 | O=C(NCc1ccccc1)C(=O)[C@H](C[C@@H]1CCCNC1=O)NC(=O)[C@H](CC1CCCCC1)NC(=O)c1cc2ccc(F)cc2[nH]1 [Example A240] | 15.9 ± 7
14 | O=C(NCc1ccccc1)C(=O)[C@H](C[C@@H]1CCCNC1=O)NC(=O)[C@H](CC1CCCCC1)NC(=O)c1cc2ccccc2s1 [Example A21] | 8.2 ± 3.2
15 | COc1ccc(OC)c2oc(C(=O)NC(CC3CCCCC3)C(=O)N[C@@H](C[C@@H]3CCCNC3=O)C(=O)C(=O)NCc3ccccc3)cc12 (stereo partly drawn) [Example A248] | 8.4 ± 1.7
16 | O=C(NCc1ccccc1)C(=O)[C@H](C[C@@H]1CCCNC1=O)NC(=O)[C@H](Cc1ccccc1)NC(=O)c1cc2ccccc2[nH]1 [Example A51, N—((S)-1-(((S)-4-(benzylamino)-3,4-dione-1-((S)-2-oxopiperidine-3-yl)but-2-yl)amino)-1-oxo-3-phenylpropan-2-yl)-1H-indole-2-carboxamide] | < 0.1
17 | O=C(NCc1ccccc1)C(=O)[C@H](C[C@@H]1CCCNC1=O)NC(=O)C(CC1CCCCC1)NC(=O)C1=Cc2cc(Cl)ccc2OC1 (stereo partly drawn) [Example A250] | 0.7 ± 0.1
18 | CC(C)NC(=O)CC[C@H](NC(=O)[C@H](CC1CCCCC1)NC(=O)c1cc2ccccc2[nH]1)C(=O)C(=O)NCc1ccccc1 [Example A232, N—((S)-1-(((S)-4-(benzyl)-3,4-dione-1-(isopropylamino)-2-yl)amino)-3-(cyclohexyl)-1-oxopropan-2-yl)-1H-indole-2-carboxamide] | 13.4 ± 3
19 | O=C(NCc1ccccc1)C(=O)[C@H](C[C@@H]1CCCNC1=O)NC(=O)C(CC1CCCCC1)NC(=O)c1nc2ccccc2[nH]1 (stereo partly drawn) [Example A244] | 12.6 ± 12.2
20 | Cn1c(C(=O)N[C@@H](CC2CCCCC2)C(=O)N[C@@H](C[C@@H]2CCCNC2=O)C(=O)C(=O)NCc2ccccc2)cc2ccccc21 [Example A27] | 8 ± 4
21 | O=C(NCc1ccccc1)C(=O)[C@H](C[C@@H]1CCCNC1=O)NC(=O)[C@H](CC1CCCCC1)NC(=O)c1cc2ccccc2[nH]1 [Example A5] | 0.5 ± 0.2
